From patent publication US3997549A, “N-arylsulfenylated derivatives of benzofuranyl methylcarbamates” (priority 1973, dated 1976)
≈ marks a conversion by molar mass, not a printed value.

Tested on: Mexican bean beetle
Assay: Initial contact activity, Mexican bean beetle
Conditions: Epilachna varivestis, 48 h, read-out: % Kill, BB (initial contact)

| SMILES | mortality at 1250 ppm [%] |
| --- | --- |
| CN(Sc1ccc(Cl)cc1)C(=O)Oc1cccc2c1OC(C)(C)C2 [Example V, 2,3-Dihydro-2,2-dimethyl-7-benzofuranyl (4-chlorophenylthio)(methyl)carbamate] | 100 |
| CN(Sc1ccc2c(c1)OCO2)C(=O)Oc1cccc2c1OC(C)(C)C2 [XIV, 2,3-Dihydro-2,2-dimethyl-7-benzofuranyl (methyl)(3,4-methylenedioxyphenylthio)carbamate] | 100 |

Tested on: southern army worm
Assay: Initial contact activity, southern army worm
Conditions: 1250 ppm, 48 h exposure

| SMILES | % Kill, AW (initial contact) [%] |
| --- | --- |
| CN(Sc1ccc(Cl)cc1)C(=O)Oc1cccc2c1OC(C)(C)C2 [Example V, 2,3-Dihydro-2,2-dimethyl-7-benzofuranyl (4-chlorophenylthio)(methyl)carbamate] | 100 |
| CN(Sc1ccc2c(c1)OCO2)C(=O)Oc1cccc2c1OC(C)(C)C2 [XIV, 2,3-Dihydro-2,2-dimethyl-7-benzofuranyl (methyl)(3,4-methylenedioxyphenylthio)carbamate] | 100 |

Tested on: milkweed bug
Assay: Residual contact activity, milkweed bug
Conditions: Oncopeltus fasciatus, 48 h, read-out: % Kill, MWB (residual contact)

| SMILES | mortality at 1250 ppm [%] |
| --- | --- |
| CN(Sc1ccc(Cl)cc1)C(=O)Oc1cccc2c1OC(C)(C)C2 [Example V, 2,3-Dihydro-2,2-dimethyl-7-benzofuranyl (4-chlorophenylthio)(methyl)carbamate] | 100 |
| CN(Sc1ccc2c(c1)OCO2)C(=O)Oc1cccc2c1OC(C)(C)C2 [XIV, 2,3-Dihydro-2,2-dimethyl-7-benzofuranyl (methyl)(3,4-methylenedioxyphenylthio)carbamate] | 100 |

Tested on: Mexican bean beetle
Assay: Residual contact activity, Mexican bean beetle
Conditions: Epilachna varivestis, 48 h, read-out: % Kill, BB (residual contact)

| SMILES | mortality at 1250 ppm [%] |
| --- | --- |
| CN(Sc1ccc(Cl)cc1)C(=O)Oc1cccc2c1OC(C)(C)C2 [Example V, 2,3-Dihydro-2,2-dimethyl-7-benzofuranyl (4-chlorophenylthio)(methyl)carbamate] | 100 |
| CN(Sc1ccc2c(c1)OCO2)C(=O)Oc1cccc2c1OC(C)(C)C2 [XIV, 2,3-Dihydro-2,2-dimethyl-7-benzofuranyl (methyl)(3,4-methylenedioxyphenylthio)carbamate] | 100 |

Tested on: plum curculio
Assay: Residual contact activity, plum curculio
Conditions: Conotrachelus nenuphar, 48 h, read-out: % Kill, PC (residual contact)

| SMILES | mortality at 1250 ppm [%] |
| --- | --- |
| CN(Sc1ccc(Cl)cc1)C(=O)Oc1cccc2c1OC(C)(C)C2 [Example V, 2,3-Dihydro-2,2-dimethyl-7-benzofuranyl (4-chlorophenylthio)(methyl)carbamate] | 95 |
| CN(Sc1ccc2c(c1)OCO2)C(=O)Oc1cccc2c1OC(C)(C)C2 [XIV, 2,3-Dihydro-2,2-dimethyl-7-benzofuranyl (methyl)(3,4-methylenedioxyphenylthio)carbamate] | 80 |

Tested on: milkweed bug
Assay: Initial contact activity, milkweed bug
Conditions: Oncopeltus fasciatus, 48 h, read-out: % Kill, MWB (initial contact)

| SMILES | mortality at 1250 ppm [%] |
| --- | --- |
| CN(Sc1ccc(Cl)cc1)C(=O)Oc1cccc2c1OC(C)(C)C2 [Example V, 2,3-Dihydro-2,2-dimethyl-7-benzofuranyl (4-chlorophenylthio)(methyl)carbamate] | 100 |
| CN(Sc1ccc2c(c1)OCO2)C(=O)Oc1cccc2c1OC(C)(C)C2 [XIV, 2,3-Dihydro-2,2-dimethyl-7-benzofuranyl (methyl)(3,4-methylenedioxyphenylthio)carbamate] | 100 |

Tested on: pea aphid
Assay: Residual contact activity, pea aphid
Conditions: Acyrthosiphon pisum, 48 h, read-out: % Kill, PA (residual contact)

| SMILES | mortality at 1250 ppm [%] |
| --- | --- |
| CN(Sc1ccc(Cl)cc1)C(=O)Oc1cccc2c1OC(C)(C)C2 [Example V, 2,3-Dihydro-2,2-dimethyl-7-benzofuranyl (4-chlorophenylthio)(methyl)carbamate] | 95 |
| CN(Sc1ccc2c(c1)OCO2)C(=O)Oc1cccc2c1OC(C)(C)C2 [XIV, 2,3-Dihydro-2,2-dimethyl-7-benzofuranyl (methyl)(3,4-methylenedioxyphenylthio)carbamate] | 10 |

Tested on: two-spotted spider mite
Assay: Initial contact activity, two-spotted spider mite
Conditions: Tetranychus urticae, 48 h, read-out: % Kill, SM (initial contact)

| SMILES | mortality at 1250 ppm [%] |
| --- | --- |
| CN(Sc1ccc(Cl)cc1)C(=O)Oc1cccc2c1OC(C)(C)C2 [Example V, 2,3-Dihydro-2,2-dimethyl-7-benzofuranyl (4-chlorophenylthio)(methyl)carbamate] | 100 |
| CN(Sc1ccc2c(c1)OCO2)C(=O)Oc1cccc2c1OC(C)(C)C2 [XIV, 2,3-Dihydro-2,2-dimethyl-7-benzofuranyl (methyl)(3,4-methylenedioxyphenylthio)carbamate] | 38 |

Tested on: pea aphid
Assay: whole plant or invertebrate
Conditions: Acyrthosiphon pisum, 48 h, read-out: % Kill, PA (systemic)

| SMILES | mortality at 39 ppm [%] | mortality at 156 ppm [%] |
| --- | --- | --- |
| CN(Sc1ccc(Cl)cc1)C(=O)Oc1cccc2c1OC(C)(C)C2 [Example V, 2,3-Dihydro-2,2-dimethyl-7-benzofuranyl (4-chlorophenylthio)(methyl)carbamate] | 100 | 100 |
| CN(Sc1ccc2c(c1)OCO2)C(=O)Oc1cccc2c1OC(C)(C)C2 [XIV, 2,3-Dihydro-2,2-dimethyl-7-benzofuranyl (methyl)(3,4-methylenedioxyphenylthio)carbamate] | 100 | 100 |

Tested on: granary weevil
Assay: Residual contact activity, granary weevil
Conditions: Sitophilus granarius, 48 h, read-out: % Kill, GW (residual contact)

| SMILES | mortality at 1250 ppm [%] |
| --- | --- |
| CN(Sc1ccc(Cl)cc1)C(=O)Oc1cccc2c1OC(C)(C)C2 [Example V, 2,3-Dihydro-2,2-dimethyl-7-benzofuranyl (4-chlorophenylthio)(methyl)carbamate] | 100 |
| CN(Sc1ccc2c(c1)OCO2)C(=O)Oc1cccc2c1OC(C)(C)C2 [XIV, 2,3-Dihydro-2,2-dimethyl-7-benzofuranyl (methyl)(3,4-methylenedioxyphenylthio)carbamate] | 100 |

Tested on: two-spotted spider mite
Assay: whole plant or invertebrate
Conditions: Tetranychus urticae, 48 h, read-out: % Kill, SM (systemic)

| SMILES | mortality at 39 ppm [%] | mortality at 156 ppm [%] |
| --- | --- | --- |
| CN(Sc1ccc(Cl)cc1)C(=O)Oc1cccc2c1OC(C)(C)C2 [Example V, 2,3-Dihydro-2,2-dimethyl-7-benzofuranyl (4-chlorophenylthio)(methyl)carbamate] | 29 | 33 |
| CN(Sc1ccc2c(c1)OCO2)C(=O)Oc1cccc2c1OC(C)(C)C2 [XIV, 2,3-Dihydro-2,2-dimethyl-7-benzofuranyl (methyl)(3,4-methylenedioxyphenylthio)carbamate] | 10 | 16 |

Tested on: not listed separately
Assay: in vivo
Conditions: mouse, po
Procedure: Acute oral toxicity of the compounds of the present invention to mice was determined after the manner of Hollingworth, Fukuto, and Metcalf in J. Agr. […] A dose of 0.25 ml of each solution was administered to each of four female white Swiss mice using the "bolus" - tipped syringe. […] Final mortality determinations were made forty-eight hours after treatment.

| SMILES | LD50 at 48 h [mg/kg] |
| --- | --- |
| CN(Sc1ccc(Cl)cc1)C(=O)Oc1cccc2c1OC(C)(C)C2 [Example V, 2,3-Dihydro-2,2-dimethyl-7-benzofuranyl (4-chlorophenylthio)(methyl)carbamate] | 50 |
| CN(Sc1ccc2c(c1)OCO2)C(=O)Oc1cccc2c1OC(C)(C)C2 [XIV, 2,3-Dihydro-2,2-dimethyl-7-benzofuranyl (methyl)(3,4-methylenedioxyphenylthio)carbamate] | 10 to 25 |

Tested on: southern army worm
Assay: Residual contact activity, southern army worm
Conditions: 1250 ppm; 7 days; 2880 min

| SMILES | % Kill, AW (residual contact) [%] |
| --- | --- |
| CN(Sc1ccc(Cl)cc1)C(=O)Oc1cccc2c1OC(C)(C)C2 [Example V, 2,3-Dihydro-2,2-dimethyl-7-benzofuranyl (4-chlorophenylthio)(methyl)carbamate] | 100 |
| CN(Sc1ccc2c(c1)OCO2)C(=O)Oc1cccc2c1OC(C)(C)C2 [XIV, 2,3-Dihydro-2,2-dimethyl-7-benzofuranyl (methyl)(3,4-methylenedioxyphenylthio)carbamate] | 100 |

Tested on: Culex fatigans
Assay: whole plant or invertebrate
Conditions: Culex quinquefasciatus, 24 h, read-out: Mosquitoes LC50
Procedure: The appropriate amount of stock solution was added with stirring to 100 ml of tap water and 20-25 fourth instar larvae of Culex fatigans were placed in the solution. After twenty-four hours, the counts were taken. Larvae not able to rise to the surface on touch were counted as dead. Each concentration was run in duplicate and each material was run on two or three different days. The average percent mortality was plotted against the logarithm of the concentration (in ppm) and the LC50 value determined by inspection.

| SMILES | LC50 [ng/mL] |
| --- | --- |
| CN(Sc1ccc(Cl)cc1)C(=O)Oc1cccc2c1OC(C)(C)C2 [Example V, 2,3-Dihydro-2,2-dimethyl-7-benzofuranyl (4-chlorophenylthio)(methyl)carbamate] | 2 (≈ 0.0055 µM) |
| CN(Sc1ccc2c(c1)OCO2)C(=O)Oc1cccc2c1OC(C)(C)C2 [XIV, 2,3-Dihydro-2,2-dimethyl-7-benzofuranyl (methyl)(3,4-methylenedioxyphenylthio)carbamate] | 6.5 (≈ 0.0174 µM) |

Tested on: two-spotted spider mite
Assay: Residual contact activity, two-spotted spider mite
Conditions: Tetranychus urticae, 48 h, read-out: % Kill, SM (residual contact)

| SMILES | mortality at 1250 ppm [%] |
| --- | --- |
| CN(Sc1ccc(Cl)cc1)C(=O)Oc1cccc2c1OC(C)(C)C2 [Example V, 2,3-Dihydro-2,2-dimethyl-7-benzofuranyl (4-chlorophenylthio)(methyl)carbamate] | 5 |
| CN(Sc1ccc2c(c1)OCO2)C(=O)Oc1cccc2c1OC(C)(C)C2 [XIV, 2,3-Dihydro-2,2-dimethyl-7-benzofuranyl (methyl)(3,4-methylenedioxyphenylthio)carbamate] | 2 |

Tested on: houseflies
Assay: whole plant or invertebrate
Conditions: Musca domestica, topical, 24 h, read-out: Houseflies LD50
Procedure: Toxicity of the compounds of the present invention to houseflies was tested using the technique described by March and Metcalf in Bull. Calif. State Dept. Agr. […] Adult female houseflies were treated with one drop of acetone solution, applied to the prothorax, using a syringe calibrated to deliver 1.00 ± 0.05 mm^3 drops. Twenty flies were treated at each dosage, each test compound was applied at 8 to 10 dosage levels. Each test was replicated three times. […] A one-inch square of cotton saturated with 40% sugar solution was provided for food in each carton. The cartons of flies were held in a constant temperature chamber at 60° F and 60% relative humidity for 24 hours before mortality counts were made. Flies totally unable to make crawling or walking movements were counted as dead. LD50 values were calculated in the conventional manner.

| SMILES | LD50 [mg/kg] |
| --- | --- |
| CN(Sc1ccc(Cl)cc1)C(=O)Oc1cccc2c1OC(C)(C)C2 [Example V, 2,3-Dihydro-2,2-dimethyl-7-benzofuranyl (4-chlorophenylthio)(methyl)carbamate] | 12.5 |
| CN(Sc1ccc2c(c1)OCO2)C(=O)Oc1cccc2c1OC(C)(C)C2 [XIV, 2,3-Dihydro-2,2-dimethyl-7-benzofuranyl (methyl)(3,4-methylenedioxyphenylthio)carbamate] | 5 |

Tested on: Mexican bean beetle
Assay: whole plant or invertebrate
Conditions: Epilachna varivestis, 48 h, read-out: % Kill, BB (systemic)

| SMILES | mortality at 39 ppm [%] | mortality at 156 ppm [%] |
| --- | --- | --- |
| CN(Sc1ccc(Cl)cc1)C(=O)Oc1cccc2c1OC(C)(C)C2 [Example V, 2,3-Dihydro-2,2-dimethyl-7-benzofuranyl (4-chlorophenylthio)(methyl)carbamate] | 95 | 100 |
| CN(Sc1ccc2c(c1)OCO2)C(=O)Oc1cccc2c1OC(C)(C)C2 [XIV, 2,3-Dihydro-2,2-dimethyl-7-benzofuranyl (methyl)(3,4-methylenedioxyphenylthio)carbamate] | 90 | 94 |

Tested on: plum curculio
Assay: Initial contact activity, plum curculio
Conditions: Conotrachelus nenuphar, 48 h, read-out: % Kill, PC (initial contact)

| SMILES | mortality at 1250 ppm [%] |
| --- | --- |
| CN(Sc1ccc(Cl)cc1)C(=O)Oc1cccc2c1OC(C)(C)C2 [Example V, 2,3-Dihydro-2,2-dimethyl-7-benzofuranyl (4-chlorophenylthio)(methyl)carbamate] | 100 |
| CN(Sc1ccc2c(c1)OCO2)C(=O)Oc1cccc2c1OC(C)(C)C2 [XIV, 2,3-Dihydro-2,2-dimethyl-7-benzofuranyl (methyl)(3,4-methylenedioxyphenylthio)carbamate] | 100 |

Tested on: pea aphid
Assay: Initial contact activity, pea aphid
Conditions: Acyrthosiphon pisum, 48 h, read-out: % Kill, PA (initial contact)

| SMILES | mortality at 1250 ppm [%] |
| --- | --- |
| CN(Sc1ccc(Cl)cc1)C(=O)Oc1cccc2c1OC(C)(C)C2 [Example V, 2,3-Dihydro-2,2-dimethyl-7-benzofuranyl (4-chlorophenylthio)(methyl)carbamate] | 100 |
| CN(Sc1ccc2c(c1)OCO2)C(=O)Oc1cccc2c1OC(C)(C)C2 [XIV, 2,3-Dihydro-2,2-dimethyl-7-benzofuranyl (methyl)(3,4-methylenedioxyphenylthio)carbamate] | 100 |

Tested on: granary weevil
Assay: Initial contact activity, granary weevil
Conditions: Sitophilus granarius, 48 h, read-out: % Kill, GW (initial contact)

| SMILES | mortality at 1250 ppm [%] |
| --- | --- |
| CN(Sc1ccc(Cl)cc1)C(=O)Oc1cccc2c1OC(C)(C)C2 [Example V, 2,3-Dihydro-2,2-dimethyl-7-benzofuranyl (4-chlorophenylthio)(methyl)carbamate] | 100 |
| CN(Sc1ccc2c(c1)OCO2)C(=O)Oc1cccc2c1OC(C)(C)C2 [XIV, 2,3-Dihydro-2,2-dimethyl-7-benzofuranyl (methyl)(3,4-methylenedioxyphenylthio)carbamate] | 100 |

Tested on: southern army worm
Assay: not given
Conditions: 39 ppm soil watering; group printed before the slash (separate test vs carbofuran); 2880 min

| SMILES | % Kill, AW (systemic) [%] |
| --- | --- |
| CN(Sc1ccc(Cl)cc1)C(=O)Oc1cccc2c1OC(C)(C)C2 [Example V, 2,3-Dihydro-2,2-dimethyl-7-benzofuranyl (4-chlorophenylthio)(methyl)carbamate] | 50 |
| CN(Sc1ccc2c(c1)OCO2)C(=O)Oc1cccc2c1OC(C)(C)C2 [XIV, 2,3-Dihydro-2,2-dimethyl-7-benzofuranyl (methyl)(3,4-methylenedioxyphenylthio)carbamate] | 14 |

Same assay, conditions: 156 ppm soil watering; 2880 min

| SMILES | % Kill, AW (systemic) [%] |
| --- | --- |
| CN(Sc1ccc(Cl)cc1)C(=O)Oc1cccc2c1OC(C)(C)C2 [Example V, 2,3-Dihydro-2,2-dimethyl-7-benzofuranyl (4-chlorophenylthio)(methyl)carbamate] | 80 |
| CN(Sc1ccc2c(c1)OCO2)C(=O)Oc1cccc2c1OC(C)(C)C2 [XIV, 2,3-Dihydro-2,2-dimethyl-7-benzofuranyl (methyl)(3,4-methylenedioxyphenylthio)carbamate] | 64 |
